Measured values published in patent US7846901B2, “Method for inhibiting or treating intestinal damage caused by radiotherapy or chemotherapy comprising administering substance-P” (University-Industry Cooperation Group of Kyunghee University, priority 2007, dated 2010).
Entries after “also recorded” stand apart in the source; their conditions may differ. Where no end group is shown, it is not given here.

Columns and labels:
Format in all cases: in vivo, C57b1/6 mice
[1] = tested on: crypt cells; test: TUNEL assay for apoptosis of crypt cells after gamma ray irradiation
Description: (§1) 8-week-old C57b1/6 mice (Central Lab Animal Inc., Seoul, Korea) were irradiated with gamma rays to establish an animal model of gastrointestinal damage, and gastrointestinal protective and regenerative effects of Substance-P were then examined.
(§2) For this purpose, C57b1/6 mice were divided into two groups, an experimental group and a control group, each consisting of 5 animals (n=5). 100 nM of Substance-P (Cat. No. 05-23-0600, Calbiochem) was injected to the experimental group mice via tail vein, 24 hours prior to gamma ray irradiation. 24 hours later, animals were irradiated with a gamma irradiator at a dose of 7.6 Gy. Immediately after gamma ray irradiation, 100 nM of Substance-P was intravenously injected once more into animals of the experimental group. The control group was given PBS.
4.5 hours, 3 days, and 7 days later, mice of each group were euthanized by CO2 asphyxiation and then received abdominal incision. […]
Dead cells were detected by fluorescence labeling of damaged DNA molecules through TUNEL assay using an In Situ Cell Death Detection Kit (Cat. No. 1 684 795, Roche Molecular Biochemicals).
The tissue section slide was deparaffinized with xylene and hydrated in alcohol. […] Nuclear staining was carried out using 4′,6-diamidino-2-phenylindole (DAPI, Cat. No. D-9542, Sigma) and the stained tissue was examined in a green field of 515 to 565 nm under a fluorescence microscope.

[2] = tested on: crypt cells; test: Brd-U immunohistochemical staining for proliferation of crypt cells after gamma ray irradiation
Description: as §1, §2
(§3) Small intestines were isolated and fixed in a 3.7% formaldehyde solution for tissue fixation, for 1 to 2 days. Following the tissue processing process, the tissues were hardened in a paraffin block. The formalin-fixed paraffin tissues were sectioned to a 5 μm thickness using a microtome and then attached to a coated slide glass which was then dried, followed by TUNEL staining, Brd-U immunostaining and H&E staining. For Brd-U immunostaining, 2 hours prior to sacrifice of mice, 50 mg/kg of 5-bromo-2-deoxyuridine (Brd-U, Cat. No. B-9285, Sigma) was introduced into dividing cells by peritoneal injection.
Proliferative effects of Substance-P on crypt cells were examined by Brd-U immunohistochemical staining.
The tissue section slide was deparaffinized with xylene and hydrated in alcohol. The tissue section was pretreated with 2N HCl for 30 min, and endogenous peroxidase activity was blocked with addition of H2O2 for 10 min. The tissue section was treated with 0.3% Triton X-100 for 5 min to increase cell permeability. Then, 2% serum in a Vector ABC kit (PK-6100, Vector Laboratories Inc.) was added to block the cells. BrdU antibodies (Cat. No. 1 170 376, Roche Molecular Biochemicals) and 2% serum were diluted in a ratio of 6:100, followed by reaction at room temperature for 1 hour. […]

[3] = tested on: crypt cells and villi of small intestine; test: H&E staining: crypt cell counts and villous heights after gamma ray irradiation
Description: as §1, §2
as §3, with “4.5 hours, 3 days, and 7 days later, mice of each group were euthanized by CO2 asphyxiation and then received abdominal incision. Small” for “Small”
After the tissue section slide was H&E-stained and photographed, crypt cell counts and villous heights were measured and averaged, respectively.

[4] = radiation-induced gastrointestinal damage in mice, vs non-treated control group

**Q.** Which “apoptosis of crypt stem cells (TUNEL)” value ([1]; 4.5 hours after 7.6 Gy gamma rays, Substance-P 100 nM i.v. 24 h before and immediately after irradiation, vs control group (PBS)) does the source give for “Substance-P (RPKPQQFFGLM-NH2; ends and bridges not checked; UniProt P20366 58-68, looked up) [11-amino acid neuropeptide; Cat. No. 05-23-0600, Calbiochem]” here?
**A.** significant reduction in apoptosis of crypt stem cells

**Q.** What about the “apoptotic rate of crypt cells, summary statement” value [1, 4] of the same substance?
**A.** significantly lower apoptotic rate of crypt cells; also recorded: apoptosis of stem cells is decreased

**Q.** What about the “BrdU staining of dividing crypt cells” value ([2]; Day 1 after gamma ray irradiation, with vs without Substance-P) of the same substance?
**A.** no significant difference in staining of cells

**Q.** And the “BrdU staining of dividing crypt cells” value ([2]; Day 3 after gamma ray irradiation)?
**A.** intense staining in large numbers of cells

**Q.** What about the “gastrointestinal recovery through crypt hyperplasia, conclusion from BrdU staining” value ([2]; after gamma ray irradiation (FIG. 2)) of the same substance?
**A.** earlier gastrointestinal recovery

**Q.** And the “villous atrophy (villous height)” value ([3]; Day 3 after irradiation, vs group without Substance-P)?
**A.** less villous atrophy

**Q.** And the “number of viable crypt cells (crypt cell survival)” value ([3]; Days 1, 3 and 7 after irradiation (FIG. 3), vs group without Substance-P)?
**A.** higher number of viable crypt cells

**Q.** What about the “recovery of damaged crypt cells and villi / recovery time from gastrointestinal damage, summary statement” value [3, 4] of the same substance?
**A.** faster recovery of damaged crypt cells and villi to a normal state; also recorded: recovery time from gastrointestinal damage is also shortened
